Source: PubChem BioAssay (NCI)
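1) Cells in 96-well plates. 2) Compound, 48 h, 5 concentrations. 3) Linear interpolation between surrounding doses. 4) Unreached endpoint = highest concentration. The concentration for 50% growth inhibition is given as GI50. TGI is the concentration that stops growth completely.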

Columns and labels:
Assay in all cases: inhibition of tumour cell growth, NCI panel, 48 h
[1] = system: HCT-116 colon
[2] = system: HT29 colon
[3] = system: KM12 colon
[4] = system: MCF7 breast
[5] = system: MDA-MB-231 breast
[6] = system: MOLT-4 leukemia
[7] = system: SK-MEL-28 melanoma
[8] = system: UO-31 renal
[9] = system: OVCAR-3 ovarian
[10] = system: NCI-H226 lung

Row | SMILES | TGI [1] [µM] | TGI [2] [µM] | TGI [3] [µM] | TGI [4] [µM] | TGI [5] [µM] | TGI [6] [µM] | TGI [7] [µM] | TGI [8] [µM] | TGI [9] [µM] | TGI [10] [µM] | GI50 [1] [µM] | GI50 [3] [µM] | GI50 [4] [µM] | GI50 [5] [µM] | GI50 [6] [µM] | GI50 [10] [µM] | GI50 [9] [µM] | GI50 [7] [µM] | GI50 [8] [µM] | GI50 [2] [µM]
1 | N#Cc1nc(Cc2cccs2)oc1N | > 100 | > 100 | > 100 | > 100 | > 100 | > 100 | > 100 | > 100 |  |  |  |  |  |  |  |  |  |  |  | 
2 | c1csc(-c2csc(-c3cccs3)c2)c1 | > 100 | > 100 | > 100 | 75.2 | > 100 | 89.2 | > 100 | > 100 | > 100 |  |  |  |  |  |  |  |  |  |  | 
3 | CC(C)(C)OC(=O)N[C@@H](Cc1ccccc1)C(=O)N1CC[C@@H](C(=O)N2[C@H]3CC4CC[C@@]3(CS2(=O)=O)C4(C)C)N1 | > 100 | > 100 | > 100 |  | > 100 | > 100 | > 100 |  | > 100 | > 100 |  |  |  |  |  |  |  |  |  | 
4 | CC1(C)CN=C(c2ccc3ccccc3c2O)N1 | > 100 |  | > 100 | > 100 | > 100 | > 100 | > 100 | > 100 | > 100 |  |  |  |  |  |  |  |  |  |  | 
5 | COC(=O)C[C@H]1[C@]2(C)C3=C(C)[C@H](c4ccoc4)CC3O[C@@H]2[C@@H]2OC(=O)[C@]3(C)CCC(=O)[C@@]1(C)[C@@H]23 (stereo partly drawn) | > 100 | > 100 | > 100 | > 100 | > 100 | 46.8 | > 100 | > 100 | > 100 |  |  |  |  |  |  |  |  |  |  | 
6 | CC[N+]1(C)CCC(O)(/C=C/c2ccc(Cl)c(Cl)c2)C(C(=O)/C=C/c2ccc(Cl)c(Cl)c2)C1 (stereo not drawn) | 3 | 4.53 | 6.69 | 6.52 |  | 5.17 | 4.37 | 3.67 | 10.6 | 14.6 |  |  |  |  |  |  |  |  |  | 
7 | NC(=S)NS(=O)(=O)c1ccc(Cl)cc1Cl | > 100 | > 100 | > 100 |  | > 100 | > 100 | > 100 | > 100 | > 100 | > 100 |  |  |  |  |  |  |  |  |  | 
8 | CCCCCCCCCC[C@@H](O)[C@H]1CC[C@@H]([C@H]2CC[C@H]([C@H](O)CCCCCCCCCC[C@@H]3CC(CC(C)=O)C(=O)O3)O2)O1 (stereo partly drawn) | > 100 |  | > 100 | > 100 | > 100 | 40.6 | > 100 | 34.6 | 39.4 |  | 0.218 | 24.2 | 19.8 | 22.8 | 6.72 | 19.6 | 18.1 | 29 | 15.2 | 
9 | O=C(O)C1(Cc2ccc3c(c2)CCC3)Cc2cc3c(cc2C1)CCC3 | > 100 | > 100 | > 100 | > 100 |  | > 100 | > 100 | > 100 | > 100 | > 100 |  |  |  |  |  |  |  |  |  | 
10 | Cc1cc2nnn(C3CCCO3)c2cc1C (stereo not drawn) | > 100 | > 100 |  | > 100 | > 100 | > 100 |  |  | > 100 | > 100 |  |  |  |  |  |  |  |  |  | 
11 | COc1cccc(C2c3cc4c(cc3OC(N3CCOCC3)C2C)OCO4)c1 (stereo not drawn) | 34.9 | 25 |  | 46.4 | > 100 | 17.6 |  | 43.4 | 38.6 | 43.4 |  |  |  |  |  |  |  |  |  | 
12 | O=C(n1c(=O)n(-c2ccc([N+](=O)[O-])cc2)c(=O)n1C(=O)C(Cl)(Cl)Cl)C(Cl)(Cl)Cl | > 100 | > 100 | > 100 | > 100 | > 100 |  | > 100 | > 100 | > 100 | > 100 |  |  |  |  |  |  |  |  |  | 
13 | NC(=S)N1N=C(c2ccc3c(c2)CCC3)CC1c1ccccc1 (stereo not drawn) | 87.6 | > 100 | > 100 | 45.2 |  | > 100 | > 100 | > 100 | 55.8 | > 100 |  |  |  |  |  |  |  |  |  | 
14 | Cc1cc(C(C)(C)C)c(OCCCN2CCOCC2)c(C(C)(C)C)c1 | 31.4 | 32.7 | 36 | 33.6 | 32.2 | 33.7 | 30.5 | 32.7 | 36.1 |  |  |  |  |  |  |  |  |  |  | 
15 | Cc1cccc(-c2cc(=O)c3c(C)ccnc3[nH]2)c1 | > 33.5 | > 100 | 16.8 | > 42.2 | > 100 | > 100 | > 100 |  |  | > 100 |  |  |  |  |  |  |  |  |  | 
16 | COc1cccc2c1C(=O)c1c(O)c3c(c(O)c1C2=O)C[C@](O)(C(=O)CO)CC3OC1CC(N)C(OC2CCCCO2)C(C)O1 (stereo partly drawn) | 2.49 | 4.52 |  | 12.1 |  | 0.0342 | 3.38 | 3.63 | 4.56 | 0.434 |  |  |  |  |  |  |  |  |  | 
17 | CN(CCc1ccccn1)C(=S)N/N=C/c1ccccn1 |  | 43.1 | 17.1 | > 100 | 0.982 | < 0.025 | > 100 | 17.8 | 25.9 | 0.255 |  |  |  |  |  |  |  |  |  | 
18 | Cn1c(=O)n2n(c1=O)C1C(=CC2)C2C=CC1n1c(=O)n(C)c(=O)n12 (stereo not drawn) | > 100 | > 100 | > 100 |  | > 100 | > 100 | > 100 | > 100 | > 100 | > 100 |  |  |  |  |  |  |  |  |  | 
19 | CCC[CH2][Ge]([CH2]CCC)([CH2]CCC)[O]C(=O)CCl | 13.3 | 11.5 | 15.9 |  |  | 29.9 | 23.6 | 15.6 | 16.3 | 31.5 | 0.498 | 1.4 |  |  | 0.856 | 14.1 | 2.33 | 11.5 | 2.28 | 0.628
20 | Cc1cc(=O)[nH]c(S(=O)(=O)NC(=S)Nc2ccc(Br)cc2)n1 |  | > 100 |  |  | > 100 | > 100 | > 100 | > 100 | > 100 | > 100 |  |  |  |  |  |  |  |  |  | 
21 | COC(=O)C1CC(C=O)=C(SC)N1 (stereo not drawn) | > 50 | > 50 | > 50 | > 50 | > 50 | > 50 | > 50 | > 50 | > 50 |  |  |  |  |  |  |  |  |  |  | 
22 | C=C1C(=O)OC2C1CC1OC2C(C)CCC/C(C)=C\CCC1(C)O (stereo not drawn) | 41 | > 91.1 | 59 | 57.4 |  | 21 | 43.1 | 79.6 | 32.6 | 51.3 |  |  |  |  |  |  |  |  |  | 
